Tested on: Pichia pastoris
Assay: 2-Dimensional gel electrophoresis of yeast protein expression
Type: cell-based
Conditions: 2D gel, 626 spots analyzed, FIG. 2 and 3
Protocol: To identify the metabolic changes in the yeast because of the polyphenol feed-strategy, 2-Dimensional gel electrophoreses and gene microarray analysis was conducted on the control, (i.e., a yeast extract without resveratrol growth factor), and a yeast-resveratrol ferment extract produced by the process of the present invention. The first dimension IEF focuses on separation of the proteins based on their isoelectric points and was conducted using the EttanIPGphor system with a manifold for protein loading. The 2nd dimension SDS-PAGE is an electrophoretic method for separating polypeptides according to their molecular weights using the DALT VI Electrophoresis Unit (GE-Amersham, Piscataway N.J.) (2, 6). To remove interfering substances and impurities, the yeast cell extracts were purified using the 2D Clean-up kit provided by GE Amersham. Each purified yeast sample was rehydrated overnight with Thiourea rehydration solution (7M Urea and 2M Thiourea, 2% Chaps, 0.5% Pharmalyte). The rehydrated samples were loaded onto the 1st dimension IEF. […]
FIG. 3 illustrates the laser densitometer comparison of the control versus the yeast/resveratrol of the invention. Reference spot numbering, pI, and MW are given for changing polypeptide spots and analyzed in the samples. […] A total of 626 spots were analyzed.

## Oc1ccc(/C=C/c2cc(O)cc(O)c2)cc1 [resveratrol, 3,4,5-transhydroxystilbene]
  proteomic changes of the yeast versus untreated control: significant proteomic changes
